Legend:
IMC-1 (IL-2 20 ng/mL) [1] = experiment: drug sensitivity score (DSS) (DSS units); higher = more sensitive; extreme values may be limits of the assay; conditions: 72 h
[2] = tested on: normal primary NK cells, pool 3 (3 donors) (IL-2 2.5 ng/mL); experiment: as above; conditions: 72 h
[3] = tested on: normal primary NK cells, pool 2 (3 donors) (IL-2 2.5 ng/mL); experiment: as above; conditions: 72 h
[4] = tested on: normal NK cells expanded with K562-aAPC; experiment: as above; conditions: 72 h; IL-2 2.5 ng/mL
Description: (§1)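 Drug sensitivity and resistance testing on K562-aAPC-expanded normal NK cells: 5 concentrations (10-fold steps over a 10,000-fold range), 72 h at 37 °C, viability by CellTiter-Glo normalised to DMSO and benzethonium chloride controls; DSS from the fitted curve.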

[5] = tested on: normal NK cells expanded with K562-aAPC; experiment: percent inhibition of viability; higher = more inhibition; conditions: 72 h, IL-2 2.5 ng/mL
Description: as §1

IMC-1 (IL-2 20 ng/mL) [6] = experiment: as above; conditions: 72 h
[7] = tested on: normal primary NK cells, pool 3 (3 donors) (IL-2 2.5 ng/mL); experiment: as above; conditions: 72 h
[8] = tested on: normal primary NK cells, pool 2 (3 donors) (IL-2 2.5 ng/mL); experiment: as above; conditions: 72 h
KHYG-1 (IL-2 2.5 ng/mL) [9] = experiment: drug sensitivity score (DSS) (DSS units); higher = more sensitive; extreme values may be limits of the assay; conditions: 72 h
[10] = tested on: normal primary NK cells, pool 1 (3 donors), resting (IL-2 0 ng/mL); experiment: as above; conditions: 72 h
NK-YS (IL-2 2.5 ng/mL) [11] = experiment: as above; conditions: 72 h
DERL-7 (IL-2 2.5 ng/mL) [12] = experiment: as above; conditions: 72 h
[13] = tested on: normal primary NK cells, pool 1 (3 donors) (IL-2 2.5 ng/mL); experiment: as above; conditions: 72 h
NKL (IL-2 2.5 ng/mL) [14] = experiment: as above; conditions: 72 h
KAI3 (IL-2 2.5 ng/mL) [15] = experiment: as above; conditions: 72 h
NK-92 (IL-2 2.5 ng/mL) [16] = experiment: as above; conditions: 72 h
SNK-6 (IL-2 2.5 ng/mL) [17] = experiment: as above; conditions: 72 h
YT (IL-2 2.5 ng/mL) [18] = experiment: as above; conditions: 72 h
KHYG-1 (IL-2 2.5 ng/mL) [19] = experiment: percent inhibition of viability; higher = more inhibition; conditions: 72 h
[20] = tested on: normal primary NK cells, pool 1 (3 donors), resting (IL-2 0 ng/mL); experiment: as above; conditions: 72 h
NK-YS (IL-2 2.5 ng/mL) [21] = experiment: as above; conditions: 72 h
DERL-7 (IL-2 2.5 ng/mL) [22] = experiment: as above; conditions: 72 h
[23] = tested on: normal primary NK cells, pool 1 (3 donors) (IL-2 2.5 ng/mL); experiment: as above; conditions: 72 h
NKL (IL-2 2.5 ng/mL) [24] = experiment: as above; conditions: 72 h
KAI3 (IL-2 2.5 ng/mL) [25] = experiment: as above; conditions: 72 h
NK-92 (IL-2 2.5 ng/mL) [26] = experiment: as above; conditions: 72 h
SNK-6 (IL-2 2.5 ng/mL) [27] = experiment: as above; conditions: 72 h
YT (IL-2 2.5 ng/mL) [28] = experiment: as above; conditions: 72 h

CON(C)C(=O)N1N=C(c2cc(F)ccc2F)S[C@@]1(CCCN)c1ccccc1 [Filanesib] (max concentration tested 1000 nM)
Conditions	drug sensitivity score
IMC-1 (IL-2 20 ng/mL) [1]	30.5
[2]	0
[3]	0
[4]	18.2

percent inhibition of viability [%]
Conditions	0.1 nM	1 nM	10 nM	100 nM	1000 nM
IMC-1 (IL-2 20 ng/mL) [6]	0.48	0.61	99.5	100	99.5
[5]	5.43	2.85	56.5	56.8	56.8
[7]	-8.61	0.04	1.29	2.17	-3.73
[8]	-10.4	4.01	3.31	2.78	0.91

CC(C)n1nc(-c2ccc3oc(N)nc3c2)c2c(N)ncnc21 [INK128] (max concentration tested 1000 nM)
Conditions	drug sensitivity score
DERL-7 (IL-2 2.5 ng/mL) [12]	19.2
KAI3 (IL-2 2.5 ng/mL) [15]	13.1
KHYG-1 (IL-2 2.5 ng/mL) [9]	8.73
NK-92 (IL-2 2.5 ng/mL) [16]	14.1
NK-YS (IL-2 2.5 ng/mL) [11]	10.7
NKL (IL-2 2.5 ng/mL) [14]	17.1
SNK-6 (IL-2 2.5 ng/mL) [17]	10.6
YT (IL-2 2.5 ng/mL) [18]	14.1
[10]	4.47
[13]	7.91

percent inhibition of viability [%]
Conditions	DERL-7 (IL-2 2.5 ng/mL) [22]	KAI3 (IL-2 2.5 ng/mL) [25]	KHYG-1 (IL-2 2.5 ng/mL) [19]	NK-92 (IL-2 2.5 ng/mL) [26]	NK-YS (IL-2 2.5 ng/mL) [21]	NKL (IL-2 2.5 ng/mL) [24]	SNK-6 (IL-2 2.5 ng/mL) [27]	YT (IL-2 2.5 ng/mL) [28]	[20]	[23]
0.1 nM	-4.21	-5.24	-4.72	-2.13	-11.2	0.39	-24	-1.84	-19.8	-6.36
1 nM	-1.17	-1.02	1.98	9.63	-5.11	1.73	-3.64	1.95	6.92	5.5
10 nM	39.4	24.1	3.77	22.5	6.74	38.8	15.8	15.8	15.4	19.8
100 nM	76.1	54.6	33	60.8	51.9	63.9	45.9	65.5	17.9	31.3
1000 nM	91.4	70.3	83.9	74.7	71.6	70.2	41.9	78	34.9	40.5

CC(C)n1nc(-c2ccc3oc(N)nc3c2)c2c(N)ncnc21 [MLN-0128] (max concentration tested 1000 nM)
Conditions	drug sensitivity score
IMC-1 (IL-2 20 ng/mL) [1]	0.2
[2]	3.64
[3]	8.27
[4]	9.64

percent inhibition of viability [%]
Conditions	0.1 nM	1 nM	10 nM	100 nM	1000 nM
IMC-1 (IL-2 20 ng/mL) [6]	-2.42	-1.34	-16.7	-30.3	19.6
[5]	-6.08	-1.99	18	40.5	44.1
[7]	-6.15	0.85	15.6	13.5	35.5
[8]	-8.27	4.32	23.5	28	36.7

CCCCCCCCCCCCCCCCCCOP(=O)([O-])OC1CC[N+](C)(C)CC1 [Perifosine] (max concentration tested 2500 nM)
Conditions	drug sensitivity score
IMC-1 (IL-2 20 ng/mL) [1]	0.06
[2]	0
[3]	0
[4]	0.73

percent inhibition of viability [%]
Conditions	0.25 nM	2.5 nM	25 nM	250 nM	2500 nM
IMC-1 (IL-2 20 ng/mL) [6]	-3.43	-7.43	0.31	2.67	10.9
[5]	-10.4	-4.12	-6.08	9.36	14
[7]	-6.26	-5.2	0.44	3.24	9.26
[8]	-4.58	-3.48	-0.26	4.53	7.26

c1cc(CN2CCCNCCNCCCNCC2)ccc1CN1CCCNCCNCCCNCC1 [Plerixafor] (max concentration tested 10000 nM)
Conditions	drug sensitivity score
IMC-1 (IL-2 20 ng/mL) [1]	0.01
[2]	0
[3]	0
[4]	0

percent inhibition of viability [%]
Conditions	1 nM	10 nM	100 nM	1000 nM	10000 nM
IMC-1 (IL-2 20 ng/mL) [6]	-6.62	-2.25	-2.63	-6.11	12
[5]	-8.84	-11.8	-6.04	-7.74	-11.7
[7]	-11.8	-3.1	-2.77	-16.3	-17.5
[8]	-13.2	-6.73	-6.7	-15	-10.7

CCN(c1cc(-c2ccc(CN3CCOCC3)cc2)cc(C(=O)NCc2c(C)cc(C)[nH]c2=O)c1C)C1CCOCC1 [Tazemetostat] (max concentration tested 10000 nM)
Conditions	drug sensitivity score
IMC-1 (IL-2 20 ng/mL) [1]	0
[2]	0
[3]	0
[4]	0

percent inhibition of viability [%]
Conditions	1 nM	10 nM	100 nM	1000 nM	10000 nM
IMC-1 (IL-2 20 ng/mL) [6]	-6.56	0.55	-2.13	1.66	2.45
[5]	-1.54	2.17	-0.28	10.4	0.84
[7]	-4.31	-2.24	8.29	-7.9	0.75
[8]	-7.19	-1.07	5.71	-5.28	7.6
